Reference: patent US20200024278A1, “COMPOSITION COMPRISING ANTIBIOTIC COMPOUND AND AN HETEROCYCLIC COMPOUND AND THEIR USE IN PREVENTING OR TREATING BACTERIAL INFECTIONS” (MUTABILIS, priority 2016, published 2020)

Tests used:
Test in all cases: MIC, broth microdilution (CLSI), substance alone or ATB combined with compound at 4 or 8 μg/mL
[1] = system: KPN BAA-1898; format: cell-based, K. pneumoniae; settings: KPN BAA-1898
Method: (§1) Compounds of the present invention were assessed against genotyped bacterial strains alone or in combination with an antibacterial. In the assays, MICs of said compounds or combination of antibiotics with fixed concentrations of said compounds (4 or 8 μg/mL) were determined by the broth microdilution method according to the Clinical Laboratory Standards Institute (CLSI-M7-A7). Briefly, compounds alone according to the invention were prepared in DMSO and spotted (2 μL each) on sterile polystyrene plates (Corning, 3788). Combinations of compounds and antibiotics dilutions were prepared in DMSO and spotted (1 μL each) on sterile polystyrene plates (Corning, 3788). Log phase bacterial suspensions were adjusted to a final density of 5·10^5 CFU/mL in cation-adjusted Mueller-Hinton broth (ca-MHB; Becton-Dickinson and Company) and added to each well (98 μL). Assays including Fosfomycin were supplemented with 25 μg/ml of Glucose-6-phosphate. Microplates were incubated for 16-20 h at 35° C. in ambient air. The MIC of the compounds was defined as the lowest concentration of said compounds that prevented bacterial growth as read by visual inspection. The MIC of ATB at each compound concentration was defined as the lowest concentration of ATB that prevented bacterial growth as read by visual inspection.

[2] = system: KPN 6299; format: cell-based, K. pneumoniae
Method: as §1

[3] = system: KPN UFR42; format: cell-based, K. pneumoniae; settings: KPN UFR42
Method: as §1

[4] = system: SPN 49619; format: cell-based, S. pneumoniae; settings: SPN 49619
How it was run: (§2)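 CLSI broth microdilution in cation-adjusted Mueller-Hinton broth, 5·10^5 CFU/mL log-phase inoculum, 16-20 h at 35 °C in ambient air. Fosfomycin assays supplemented with 25 μg/ml glucose-6-phosphate.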

[5] = system: ECL P99; format: cell-based, E. cloacae; settings: ECL P99
Method: as §1

[6] = system: SAU 29213; format: cell-based, S. aureus; settings: SAU 29213
How it was run: as §2

[7] = system: PAE UFR48; format: cell-based, P. aeruginosa; settings: PAE UFR48
How it was run: as §2

[8] = system: PAE UFR90; format: cell-based, P. aeruginosa; settings: PAE UFR90
How it was run: as §2

[9] = system: PAE 105250; format: cell-based, P. aeruginosa; settings: PAE 105250
How it was run: as §2

[10] = system: ECO 190317; format: cell-based, E. coli; settings: ECO 190317
How it was run: as §2

[11] = system: ECO UFR39; format: cell-based, E. coli; settings: ECO UFR39
How it was run: as §2

## CO/N=C(\C(=O)N[C@@H]1C(=O)N2C(C(=O)[O-])=C(C[n+]3cccc4c3CCC4)CS[C@H]12)c1csc(N)n1 [CPO]
[1]; antibiotic alone
  MIC ATB alone: >256 µg/mL
[1]; with Example 1 @8 μg/ml
  MIC ATB combined with Example 1 @8 μg/ml: 0.125 µg/mL
[1]; with Example 1 at 8 μg/ml
  MIC ATB combined with Example 1 @8 μg/ml: 0.125 µg/mL
[1]; with Example 7 at 8 μg/ml
  MIC ATB combined with Example 7 @8 μgml: <0.031 µg/mL
[1]; with Example 9 @4 μg/ml
  MIC ATB combined with Example 9 @4 μg/ml: <0.031 µg/mL
[1]; with Example 9 at 4 μg/ml
  MIC ATB combined with Example 9 @4 μg/ml: <0.031 µg/mL
[1]; with Example 11 at 8 μg/ml
  MIC ATB combined with Example 11 @8 μg/ml: <=0.031 μg/mL
[1]; with Example 12 at 8 μg/ml
  MIC ATB combined with Example 12 @8 μg/ml: <0.031 µg/mL
[1]; with Example 13 at 8 μg/ml
  MIC ATB combined with Example 13 @8 μg/ml: 0.5 µg/mL
[1]; with Example 14 at 8 μg/ml
  MIC ATB combined with Example 14 @8 μg/ml: <0.031 µg/mL
[1]; with Example 15 at 4 μg/ml
  MIC ATB combined with Example 15 @4 μgml: <=0.031 μg/mL
[1]; with Example 16 at 4 μg/ml
  MIC ATB combined with Example 16 @4 μg/ml: <0.031 µg/mL
[2]; antibiotic alone
  MIC ATB alone: >256 µg/mL
[2]; with Example 1 @8 μg/ml
  MIC ATB combined with Example 1 @8 μg/ml: 0.5 µg/mL
[2]; with Example 1 at 8 μg/ml
  MIC ATB combined with Example 1 @8 μg/ml: 0.5 µg/mL
[2]; with Example 7 at 8 μg/ml
  MIC ATB combined with Example 7 @8 μgml: 0.063 µg/mL
[2]; with Example 9 @4 μg/ml
  MIC ATB combined with Example 9 @4 μg/ml: <=0.031 μg/mL
[2]; with Example 9 at 4 μg/ml
  MIC ATB combined with Example 9 @4 μg/ml: <=0.031 μg/mL
[2]; with Example 11 at 8 μg/ml
  MIC ATB combined with Example 11 @8 μg/ml: <0.031 µg/mL
[2]; with Example 12 at 8 μg/ml
  MIC ATB combined with Example 12 @8 μg/ml: <0.031 µg/mL
[2]; with Example 13 at 8 μg/ml
  MIC ATB combined with Example 13 @8 μg/ml: 0.125 µg/mL
[2]; with Example 14 at 8 μg/ml
  MIC ATB combined with Example 14 @8 μg/ml: <0.031 µg/mL
[2]; with Example 15 at 4 μg/ml
  MIC ATB combined with Example 15 @4 μgml: <=0.031 μg/mL
[2]; with Example 16 at 4 μg/ml
  MIC ATB combined with Example 16 @4 μg/ml: <0.031 µg/mL
[3]; CPO alone
  MIC ATB alone: >32 µg/mL
[3]; antibiotic alone
  MIC ATB alone: >32 µg/mL
[3]; with Example 1 @8 μg/ml
  MIC ATB combined with Example 1 @8 μg/ml: 16 µg/mL
[3]; with Example 9 @4 μg/ml
  MIC ATB combined with Example 9 @4 μg/ml: <0.031 µg/mL
[4]; CPO alone
  MIC ATB alone: <=0.031 μg/mL
[4]; antibiotic alone
  MIC ATB alone: <=0.031 μg/mL
[4]; with Example 1 @8 μg/ml
  MIC ATB combined with Example 1 @8 μg/ml: <=0.031 μg/mL
[4]; with Example 9 @4 μg/ml
  MIC ATB combined with Example 9 @4 μg/ml: <=0.031 μg/mL
[5]; antibiotic alone
  MIC ATB alone: 16 µg/mL
[5]; with Example 1 @8 μg/ml
  MIC ATB combined with Example 1 @8 μg/ml: <0.031 µg/mL
[5]; with Example 1 at 8 μg/ml
  MIC ATB combined with Example 1 @8 μg/ml: <0.031 µg/mL
[5]; with Example 7 at 8 μg/ml
  MIC ATB combined with Example 7 @8 μgml: <=0.031 μg/mL
[5]; with Example 9 @4 μg/ml
  MIC ATB combined with Example 9 @4 μg/ml: <0.031 µg/mL
[5]; with Example 9 at 4 μg/ml
  MIC ATB combined with Example 9 @4 μg/ml: <0.031 µg/mL
[5]; with Example 11 at 8 μg/ml
  MIC ATB combined with Example 11 @8 μg/ml: <0.031 µg/mL
[5]; with Example 12 at 8 μg/ml
  MIC ATB combined with Example 12 @8 μg/ml: <0.031 µg/mL
[5]; with Example 13 at 8 μg/ml
  MIC ATB combined with Example 13 @8 μg/ml: 0.063 µg/mL
[5]; with Example 14 at 8 μg/ml
  MIC ATB combined with Example 14 @8 μg/ml: <0.031 µg/mL
[5]; with Example 15 at 4 μg/ml
  MIC ATB combined with Example 15 @4 μgml: <0.031 µg/mL
[5]; with Example 16 at 4 μg/ml
  MIC ATB combined with Example 16 @4 μg/ml: <0.031 µg/mL
[6]; CPO alone
  MIC ATB alone: 1 µg/mL
[6]; antibiotic alone
  MIC ATB alone: 1 µg/mL
[6]; with Example 1 @8 μg/ml
  MIC ATB combined with Example 1 @8 μg/ml: 1 µg/mL
[6]; with Example 9 @4 μg/ml
  MIC ATB combined with Example 9 @4 μg/ml: <0.031 µg/mL
[7]; CPO alone
  MIC ATB alone: >32 µg/mL
[7]; antibiotic alone
  MIC ATB alone: >32 µg/mL
[7]; with Example 1 @8 μg/ml
  MIC ATB combined with Example 1 @8 μg/ml: <0.031 µg/mL
[7]; with Example 9 @4 μg/ml
  MIC ATB combined with Example 9 @4 μg/ml: >32 µg/mL
[8]; CPO alone
  MIC ATB alone: >32 µg/mL
[8]; antibiotic alone
  MIC ATB alone: >32 µg/mL
[8]; with Example 1 @8 μg/ml
  MIC ATB combined with Example 1 @8 μg/ml: <0.031 µg/mL
[8]; with Example 9 @4 μg/ml
  MIC ATB combined with Example 9 @4 μg/ml: 8 µg/mL
[9]; CPO alone
  MIC ATB alone: 32 µg/mL
[9]; antibiotic alone
  MIC ATB alone: 32 µg/mL
[9]; with Example 1 @8 μg/ml
  MIC ATB combined with Example 1 @8 μg/ml: <0.031 µg/mL
[9]; with Example 9 @4 μg/ml
  MIC ATB combined with Example 9 @4 μg/ml: 32 µg/mL
[10]; antibiotic alone
  MIC ATB alone: >256 µg/mL
[10]; with Example 1 @8 μg/ml
  MIC ATB combined with Example 1 @8 μg/ml: <0.031 µg/mL
[10]; with Example 1 at 8 μg/ml
  MIC ATB combined with Example 1 @8 μg/ml: <0.031 µg/mL
[10]; with Example 7 at 8 μg/ml
  MIC ATB combined with Example 7 @8 μgml: <0.031 µg/mL
[10]; with Example 9 @4 μg/ml
  MIC ATB combined with Example 9 @4 μg/ml: <0.031 µg/mL
[10]; with Example 9 at 4 μg/ml
  MIC ATB combined with Example 9 @4 μg/ml: <0.031 µg/mL
[10]; with Example 11 at 8 μg/ml
  MIC ATB combined with Example 11 @8 μg/ml: <0.031 µg/mL
[10]; with Example 12 at 8 μg/ml
  MIC ATB combined with Example 12 @8 μg/ml: <0.031 µg/mL
[10]; with Example 13 at 8 μg/ml
  MIC ATB combined with Example 13 @8 μg/ml: <0.031 µg/mL
[10]; with Example 14 at 8 μg/ml
  MIC ATB combined with Example 14 @8 μg/ml: <0.031 µg/mL
[10]; with Example 15 at 4 μg/ml
  MIC ATB combined with Example 15 @4 μgml: <=0.031 μg/mL
[10]; with Example 16 at 4 μg/ml
  MIC ATB combined with Example 16 @4 μg/ml: <0.031 µg/mL
[11]; CPO alone
  MIC ATB alone: >32 µg/mL
[11]; antibiotic alone
  MIC ATB alone: >32 µg/mL
[11]; with Example 1 @8 μg/ml
  MIC ATB combined with Example 1 @8 μg/ml: <0.031 µg/mL
[11]; with Example 9 @4 μg/ml
  MIC ATB combined with Example 9 @4 μg/ml: <0.031 µg/mL
